Results from patent US6362216B1, “Compounds which inhibit tryptase activity” (Array Biopharma Inc., priority 1998, dated 2002).

What was measured:
Format in all cases: biochemical
Human lung tryptase = target: T1, Human lung tryptase; experiment: Human lung tryptase inhibition, chromogenic GPR-pNA substrate
T1 construct: Human lung tryptase purchased from Cortex Biochem (San Leandro, Calif.) was purified further on a Superdex 200 gel-filtration column
Description: (§1) Protease inhibition was assayed according to published procedures with minor modifications using various proteases and specific chromogenic peptide p-nitroanilide substrates. Assays were performed in Costar ultra-low cluster 96-well microtiter plate (Costar Corning Corp., Cambridge Mass.). Each protease was incubated with various concentrations of the test compound for 15 min. at 37° C. or as otherwise indicated, in specific assay buffer, and the residual activity was then measured by addition of the substrate. p-Nitroaniline produced by the proteolysis was determined by measuring the change in absorbance at 405 nm on a SpectraMAX 340 plate reader (Molecular devices, Sunnyvale, Calif.).
(§2) 1. The inhibition constant, Ki is calculated from individual data points using the equation for a tight-binding inhibitor (See Beith, “Proteinase Inhibitors-Proceedings of 2nd Int. Res. Conference”, Fritz, et al. eds., New York, p.4463-4469 (1974)):
vi/vo=[((Ki′+[I]+[E]o)^2−4[I]o[E]o)^½(Ki′+[I]o−[E]o)]/2[E]o
where Ki′ is apparent inhibition constant; vi and vo are the inhibited and uninhibited rates, respectively; [I]o and [E]o are the total concentrations of inhibitor and enzyme, respectively.
[note: [E]o is determined by active site titration of enzyme]
(§3) The Ki values are obtained by correcting Ki ′ values for the effect of substrate concentration according to: [formula]
(§4) 2. Other inhibition data (Ki>>[E]o), the Ki is calculated from using the equations for a competitive inhibitor: [formula]
IC50 is determined by fitting the individual inhibition data point to Sigmoid or four-parameter curve-fit equations.
Human lung tryptase purchased from Cortex Biochem (San Leandro, Calif.) was purified further on a Superdex 200 gel-filtration column. The active-site concentration of the enzyme was determined by spectrophotometric titration with 4-nitrophenyl 4′-guanidinobenzoate according to Schwartz, et al., J. Immunol., 114, 2304-2311 (1990). Tryptase activity was measured according to the procedures of Schwartz, et al., J. Biol. Chem., 261, 7372-7379 (1986) (See also, Schwartz, L. B., Methods In Enzymology, 244, 88 (1994)) with minor modifications, using Tosyl-Gly-Pro-Arg-p-nitroanilide (“GPR-pNA”, Sigma Chemical Co., St. Louis, Mo., T-1637) as a chromogenic substrate. The reaction was performed in 50 mM Tris-HCl, pH 8.0, containing 150 mM NaCl and 0.02% Triton X-100 at 37° C. in Costar ultra-low cluster 96-well microtiter plates (Costar Corning Corp., Cambridge, Mass.). The amount of pNA produced by tryptase was determined by measuring the change in absorbance at 405 nm on a SpectraMAX 340 plate reader (Molecular devices, Sunnyvale, Calif.). The Km for the substrate was determined by Lineweaver-Burk analysis from initial velocities of substrate hydrolysis. The inhibition assay was carried out in a total volume of 200 μL. Tryptase (30 μL-final concentration 1 nM) was incubated with various concentrations of sample compound (50 μL) to be tested in the above assay buffer for 5 min. The reaction was started by the addition of substrate GPR-pNA (40 μL-final concentration 320 μM), and the residual activity was measured after 15 min. of incubation. The inhibition constant, Ki, was determined by fitting the inhibition data to a two-site competitive binding equation using data analysis program GraphPad PRISM (GraphPad Software, Inc., San Diego, Calif.).
(§5) The inhibition constant (Ki) of the test compounds against each proteolytic enzyme was determined according to Zitnik et al., Biochem. Biophys. Res. Commun. 232, 687-697 (1997)).

[1] = target: T2, Bovine pancreatic Trypsin (TPCK-treated) (Bos taurus, UniProt P00760); experiment: Bovine pancreatic trypsin inhibition, N-α-Benzoyl-L-Arg-pNA substrate
T2 construct: from tissue; host or cells: bovine pancreas
T2 sequence (P00760 24-246): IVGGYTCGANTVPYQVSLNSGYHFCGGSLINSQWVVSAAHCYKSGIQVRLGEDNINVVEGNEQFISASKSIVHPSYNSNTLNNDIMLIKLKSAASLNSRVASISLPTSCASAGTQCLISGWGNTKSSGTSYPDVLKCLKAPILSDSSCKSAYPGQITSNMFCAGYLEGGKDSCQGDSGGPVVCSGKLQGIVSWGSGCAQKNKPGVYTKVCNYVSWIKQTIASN
Description: as §1, §2, §3, §4
C. Bovine Pancreatic Trypsin
Bovine pancreatic Trypsin (TPCK-treated) activity was determined by using N-α-Benzoyl-L-Arg-pNA in 50 mM Tris-HCl, pH 8.2, 20 mM CaCl2 (See Somorin, et al., J. Biochem. 85, 157-162 (1979)).
as §5

Human plasma thrombin = target: T3, Human plasma thrombin (Homo sapiens, UniProt P00734); experiment: Human plasma thrombin inhibition, H-D-Phe-Pip-Arg-pNA substrate
T3 construct: from tissue; host or cells: human plasma
Description: as §1, §2, §3, §4
Human plasma thrombin activity was determined by using H-D-Phe-Pip-Arg-pNA in 50 mM Tris-HCl, pH 8.3, 100 mM NaCl, 1% BSA (See Lottenberg, et al., Meth. Enzymol. 80, 341-361 (1981)).
as §5

[2] = tryptase 1 nM, GPR-pNA 320 μM, 50 mM Tris-HCl pH 8.0, 37° C.
[3] = 50 mM Tris-HCl, pH 8.2, 20 mM CaCl2
[4] = 50 mM Tris-HCl, pH 8.3, 100 mM NaCl, 1% BSA

Ki (Human lung tryptase; [2]) | Ki [1, 3] | Ki (Human plasma thrombin; [4]) | SMILES | also measured
5500 nM | – | – | N=C(N)c1ccc2[nH]c(CC(=O)NCCc3ccccc3)nc2c1 [X = H n = 2] | –
– | – | – | Cc1cc2cc(CNC(=O)Cc3ccc4cc(C(=N)N)ccc4c3)ccc2[nH]1 [drawing 17 Naphthalene 2,6-substitution n=1] | Ki (Human lung tryptase; the 5th table, unit inferred): 10 nM; Ki ([1]; the 5th table, unit inferred): 0.34 µM; Ki (Human plasma thrombin; the 5th table, unit inferred): > 100 µM
5200 nM | – | – | N=C(N)c1ccc2[nH]c(CC(=O)Nc3ccc4ccccc4c3)nc2c1 [2-Napthyl] | –
7400 nM | – | – | CCNC(=O)Cc1nc2cc(C(=N)N)ccc2[nH]1 [CH2CH3] | –
290 nM | 14.2 µM | > 100 µM | N=C(N)c1ccc2[nH]c(CC(=O)Nc3cccc(N)c3)nc2c1 [(3-Amino)Ph] | –
7700 nM | – | – | CS(=O)(=O)Nc1cccc(NC(=O)Cc2nc3cc(C(=N)N)ccc3[nH]2)c1 [(3-N(H)SO2CH3)Ph] | –
970 nM | 1.7 µM | > 100 µM | N=C(N)c1ccc(NC(=O)Cc2nc3cc(C(=N)N)ccc3[nH]2)cc1 [(4-Amidino)Ph] | –
1200 nM | 2.1 µM | > 100 µM | N=C(N)c1ccc2cc(CC(=O)Nc3cccc(N)c3)ccc2c1 | –
520 nM | 2.2 µM | > 100 µM | N=C(N)c1cccc(NC(=O)Cc2nc3cc(C(=N)N)ccc3[nH]2)c1 [(3-Amidino)Ph] | –
80 nM | 1.3 µM | > 100 µM | N=C(N)c1ccc2cc(C(=O)NCc3cccc(N)c3)ccc2c1 | –
340 nM | 4.6 µM | > 100 µM | N=C(N)c1ccc2[nH]c(CC(=O)Nc3ccc4ncccc4c3)nc2c1 [6-Quinoline] | –
4700 nM | – | – | N=C(N)c1ccc2[nH]c(CC(=O)NCc3ccncc3)nc2c1 [CH2(4-Pyridyl)] | –
9600 nM | – | – | CCCNC(=O)Cc1nc2cc(C(=N)N)ccc2[nH]1 [CH2CH2CH3] | –
2500 nM | – | – | N=C(N)c1ccc2[nH]c(CC(=O)NCc3ccc(CN)cc3)nc2c1 [CH2Ph(4-CH2NH2)] | –
1200 nM | – | – | N=C(N)c1ccc2[nH]c(CC(=O)Nc3ccccn3)nc2c1 [2-Pyridyl] | –
6400 nM | – | – | CC(=O)Nc1ccc(NC(=O)Cc2nc3cc(C(=N)N)ccc3[nH]2)cc1 [(4-N(H)COCH3)Ph] | –

Ki (Human lung tryptase; [2]) | Ki [1, 3] | Ki (Human plasma thrombin; [4]) | SMILES | also measured
100 nM | – | – | N#Cc1ccc2[nH]c(Cc3nc4cc(C(=N)N)ccc4[nH]3)nc2c1 | –
3900 nM | – | – | CS(=O)(=O)Nc1ccc(NC(=O)Cc2nc3cc(C(=N)N)ccc3[nH]2)cc1 [(4-N(H)SO2CH3)Ph] | –
9500 nM | – | – | N=C(N)c1ccc2[nH]c(CC(=O)Nc3ccccc3)nc2c1 [X = H n = 0] | –
570 nM | 8.7 µM | > 100 µM | N=C(N)c1ccc2[nH]c(CC(=O)Nc3cccc(O)c3)nc2c1 [(3-OH)Ph] | –
810 nM | 21.8 µM | > 100 µM | N=C(N)c1ccc2[nH]c(CC(=O)Nc3ccc4[nH]ccc4c3)nc2c1 [5-Indole] | –
55 nM | 0.43 µM | > 100 µM | N=C(N)c1ccc2cc(C(=O)Nc3cccc(N)c3)ccc2c1 | –
490 nM | 7.5 µM | > 100 µM | N=C(N)c1ccc2[nH]c(CC(=O)NCc3cccc(N)c3)nc2c1 [CH2Ph(3-Amino)] | –
160 nM | 0.95 µM | > 100 µM | N=C(N)c1ccc2cc(C(=O)NCCc3ccc(N)cc3)ccc2c1 | –
42800 nM | – | – | CNC(=O)Cc1nc2cc(C(=N)N)ccc2[nH]1 [CH3] | –
31400 nM | – | – | N=C(N)c1ccc2[nH]c(CC(N)=O)nc2c1 [H] | –
1700 nM | – | – | N=C(N)c1ccc2[nH]c(CC(=O)NC3CCN(Cc4ccccc4)CC3)nc2c1 [4-Piperidinyl(N-benzyl)] | –
2200 nM | – | – | N=C(N)c1ccc2[nH]c(CC(=O)Nc3ccc(S(N)(=O)=O)cc3)nc2c1 [(4-SO2NH2)Ph] | –
1300 nM | – | – | N=C(N)c1ccc2[nH]c(CC(=O)NCCc3ccncc3)nc2c1 [CH2CH2(4-Pyridyl)] | –
21800 nM | – | – | N=C(N)c1ccc2[nH]c(CC(=O)NCc3ccccc3)nc2c1 [X = H n = 1] | –
210 nM | 0.59 µM | > 100 µM | N=C(N)c1ccc2cc(C(=O)NCc3ccc(N)cc3)ccc2c1 | –
36900 nM | – | – | N=C(N)c1ccc2[nH]c(CC(=O)NC3CCCCC3)nc2c1 [Cyclohexyl] | –

SMILES | Ki (Human lung tryptase; [2]) | Ki [1, 3] | Ki (Human plasma thrombin; [4]) | also measured
N=C(N)c1ccc2[nH]c(CC(=O)NCc3ccc(N)cc3)cc2c1 [drawing 15 Indole 5-carboxamidine n=1 m=1] | 440 nM | 3.4 µM | 65 µM | –
N=C(N)c1ccc2sc(C(=O)NCc3ccc(N)cc3)cc2c1 | 440 nM | 8.8 µM | > 100 µM | –
N=C(N)c1ccc2[nH]c(CC(=O)Nc3cccc(N)c3)cc2c1 [drawing 14 Indole 5-carboxamidine n=1 m=0] | 390 nM | 4 µM | > 100 µM | –
N=C(N)c1ccc2sc(C(=O)NCCc3ccc(N)cc3)cc2c1 | 170 nM | 8.3 µM | > 100 µM | –
N=C(N)c1ccc2sc(C(=O)NCc3cccc(N)c3)cc2c1 | 220 nM | 9.1 µM | > 100 µM | –
N=C(N)c1ccc2[nH]c(CC(=O)Nc3ccc(N)cc3)cc2c1 [drawing 15 Indole 5-carboxamidine n=1 m=0] | 200 nM | 3.8 µM | > 100 µM | –
N=C(N)c1ccc2sc(C(=O)Nc3cccc(N)c3)cc2c1 | 520 nM | 14 µM | > 100 µM | –
N=C(N)c1ccc2sc(CC(=O)NCc3cccc(N)c3)cc2c1 | 90 nM | 6.4 µM | > 100 µM | –
